Measured values published in the Kinase Knowledgebase extract (Sharma et al. 2016).
Several values for one entry are separate records, joined by “and”; a condition that tells them apart may be missing. Equal values may be shown once.

biological target: MAPK14 (human) (UniProt Q16539); experiment: Inhibition of MAPK14 Kinase Activity
Sequence (Q16539 whole entry, looked up): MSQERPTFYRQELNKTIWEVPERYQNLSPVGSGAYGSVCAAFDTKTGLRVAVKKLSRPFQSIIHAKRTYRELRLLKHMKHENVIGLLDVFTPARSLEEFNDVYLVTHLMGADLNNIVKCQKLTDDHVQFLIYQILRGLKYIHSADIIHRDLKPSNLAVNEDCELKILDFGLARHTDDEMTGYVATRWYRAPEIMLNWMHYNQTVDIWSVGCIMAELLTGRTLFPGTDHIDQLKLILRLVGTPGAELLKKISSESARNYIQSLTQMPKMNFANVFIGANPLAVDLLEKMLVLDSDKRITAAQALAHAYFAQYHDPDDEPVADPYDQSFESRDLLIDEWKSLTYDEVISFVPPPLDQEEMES

SMILES	IC50	Ki
CC(C)n1c(N2CCC(N)C2)nc(OCc2ccc(F)cc2F)c(Br)c1=O (centres undefined)	150 nM	62.2 nM
CC(C)n1c(NCCNC(N)=O)nc(OCc2ccc(F)cc2F)c(Cl)c1=O	19.6 nM	10.1 nM
CC(=O)NCCNc1nc(OCc2ccc(F)cc2F)c(Cl)c(=O)n1C(C)C	28.1 nM	14.7 nM
CC(C)n1c(N2CC[C@@H](NC(=O)C(C)(C)O)C2)nc(OCc2ccc(F)cc2F)c(Cl)c1=O	484 nM	310 nM
CC(C)n1c(NCCCNC(N)=O)nc(OCc2ccc(F)cc2F)c(Br)c1=O	5 nM	2.09 nM
CC(C)n1c(NCCNC(=O)CO)nc(OCc2ccc(F)cc2F)c(Br)c1=O	14.2 nM	6.58 nM
CC(C)n1c(N2CCC(NC(=O)CN)C2)nc(OCc2ccc(F)cc2F)c(Br)c1=O (centres undefined)	217 nM	118 nM
CC(C)n1c(N2CC[C@H](NC(=O)C(C)(C)O)C2)nc(OCc2ccc(F)cc2F)c(Cl)c1=O	864 nM	555 nM
CC(C)n1c(NCc2ccc(F)cc2)nc(OCc2ccc(F)cc2F)c(Br)c1=O	29.9 nM	13.7 nM
CC(C)n1c(NC[C@@H](O)CO)nc(OCc2ccc(F)cc2F)c(Br)c1=O	21.6 nM	11.1 nM
CC(C)n1c(NCC(C)(C)O)nc(OCc2ccc(F)cc2F)c(Br)c1=O	31.7 nM	16.6 nM
CC(C)n1c(NCC(=O)NCCO)nc(OCc2ccc(F)cc2F)c(Br)c1=O	221 nM	105 nM
CNC(=O)CCCc1nc(OCc2ccc(F)cc2F)c(Br)c(=O)n1C(C)C	557 nM	255 nM
CC(C)n1c(CCCC(N)=O)nc(OCc2ccc(F)cc2F)c(Br)c1=O	391 nM	181 nM
CC(C)n1c(-c2ccccc2)nc(OCc2ccc(F)cc2F)c(Br)c1=O	112 nM	59.1 nM
CC(C)n1c(-c2ccc(C(N)=O)cc2)nc(OCc2ccc(F)cc2F)cc1=O	260 nM	144 nM
CC(C)n1c(NCCNC(=O)C(C)(C)O)nc(OCc2ccc(F)cc2F)c(Cl)c1=O	51.6 nM	24.7 nM
CC(C)n1c(-c2ccc(C(N)=O)cc2)nc(OCc2ccc(F)cc2F)c(Cl)c1=O	328 nM	181 nM
CC(C)n1c(-c2ccc(C(N)=O)cc2)nc(OCc2ccc(F)cc2F)c(Br)c1=O	110 nM	60.6 nM
CC(C)n1c(N2CC[C@@H](O)C2)nc(OCc2ccc(F)cc2F)c(Br)c1=O	605 nM	297 nM
CC(C)n1c(S(C)(=O)=O)nc(OCc2ccc(F)cc2F)c(Br)c1=O	299 nM	156 nM

SMILES	IC50	Ki
CC(C)n1c(-c2cccc(C(N)=O)c2)nc(OCc2ccc(F)cc2F)c(Br)c1=O	608 nM	378 nM
Cn1c(NCC(N)=O)nc(OCc2ccc(F)cc2F)c(Br)c1=O	954 nM	532 nM
CC(C)n1c(N(C)CC(N)=O)nc(OCc2ccc(F)cc2F)c(Cl)c1=O	1680 nM	774 nM
CC(C)n1c(NCC(=O)N2CCCC2)nc(OCc2ccc(F)cc2F)c(Br)c1=O	215 nM	102 nM
CC(C)n1c(N2CCC[C@H]2C(N)=O)nc(OCc2ccc(F)cc2F)c(Br)c1=O	23.8 nM	12.3 nM
C=CCCc1nc(OCc2ccc(F)cc2F)c(Cl)c(=O)n1C(C)C	164 nM	79.9 nM
COC(=O)c1ccc(CNc2nc(OCc3ccc(F)cc3F)c(Br)c(=O)n2C(C)C)cc1	637 nM	304 nM
CC(C)n1c(N2CCC[C@@H]2CO)nc(OCc2ccc(F)cc2F)c(Br)c1=O	29.8 nM	15.7 nM
CC(C)n1c(CCCC(=O)NC[C@@H](C)O)nc(OCc2ccc(F)cc2F)c(Cl)c1=O	594 nM	310 nM
CC(C)n1c(CCC(=O)O)nc(OCc2ccc(F)cc2F)c(Cl)c1=O	2330 nM	1110 nM
C=CCc1nc(OCc2ccc(F)cc2F)c(Cl)c(=O)n1C(C)C	256 nM	133 nM
CC(C)n1c(NCCC(N)=O)nc(OCc2ccc(F)cc2F)c(Br)c1=O	12.8 nM and 14.2 nM	6.86 nM and 6.37 nM
CC(C)n1c(N2CC[C@@H](NC(=O)CO)C2)nc(OCc2ccc(F)cc2F)c(Cl)c1=O	372 nM	238 nM
CC(C)n1c(CNS(C)(=O)=O)nc(OCc2ccc(F)cc2F)c(Br)c1=O	59.4 nM	28.5 nM
CC(C)n1c(CCCCO)nc(OCc2ccc(F)cc2F)c(Cl)c1=O	181 nM	90.5 nM
CC(C)n1c(NCCNC(=O)CO)nc(OCc2ccc(F)cc2F)c(Cl)c1=O	22.1 nM	10.2 nM
CC(=O)NCCCNc1nc(OCc2ccc(F)cc2F)c(Br)c(=O)n1C(C)C	13 nM	6.62 nM
CC(C)n1c(NCCNS(C)(=O)=O)nc(OCc2ccc(F)cc2F)c(Br)c1=O	1.7 nM	0.205 nM
CC(C)n1c(OCCN)nc(OCc2ccc(F)cc2F)c(Br)c1=O	334 nM	140 nM
CC(C)n1c(N2CC[C@H](N)C2)nc(OCc2ccc(F)cc2F)c(Cl)c1=O	1660 nM	1070 nM
CC(C)n1c(N2CC[C@@H](N)C2)nc(OCc2ccc(F)cc2F)c(Cl)c1=O	497 nM	319 nM
